Key:
Test in all cases: KINOMEscan
Type in all cases: binding
Settings in all cases: read-out: Remaining enzyme activity
ARK5 = molecular target: T1, ARK5 (Homo sapiens, UniProt O60285)
T1 construct: purchased Ambit (DiscoverX) KINOMEscan; Cerep
Procedure, shortened: (§1)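 Three components per well: DNA-labelled kinase, bead-bound ligand, compound (SC81458, 10 μM final). Blocking buffer: SeaBlock, 1% BSA, 0.05% Tween 20, 1 mM DTT. Readout = qPCR of kinase in eluate.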

ASK2 = molecular target: T2, ASK2 (Homo sapiens, UniProt O95382)
T2 construct: purchased Ambit (DiscoverX) KINOMEscan; Cerep
Procedure, shortened: as §1

CAMK2b = molecular target: T3, CAMK2b (Homo sapiens, UniProt Q13554)
T3 construct: purchased Ambit (DiscoverX) KINOMEscan; Cerep
Procedure, shortened: as §1

CAMKK1 = molecular target: T4, CAMKK1 (Homo sapiens, UniProt Q8N5S9)
T4 construct: purchased Ambit (DiscoverX) KINOMEscan; Cerep
Procedure, shortened: as §1

CLK2 = molecular target: T5, CLK2 (Homo sapiens, UniProt P49760)
T5 construct: purchased Ambit (DiscoverX) KINOMEscan; Cerep
Procedure, shortened: as §1

DAPK2 = molecular target: T6, DAPK2 (Homo sapiens, UniProt Q9UIK4)
T6 construct: purchased Ambit (DiscoverX) KINOMEscan; Cerep
Procedure, shortened: as §1

DCAMKL2 = molecular target: T7, DCAMKL2 (Homo sapiens, UniProt Q8N568)
T7 construct: purchased Ambit (DiscoverX) KINOMEscan; Cerep
Procedure, shortened: as §1

DRAK1 = molecular target: T8, DRAK1 (Homo sapiens, UniProt Q9UEE5)
T8 construct: purchased Ambit (DiscoverX) KINOMEscan; Cerep
Procedure, shortened: as §1

DYRK2 = molecular target: T9, DYRK2 (Homo sapiens, UniProt Q92630)
T9 construct: purchased Ambit (DiscoverX) KINOMEscan; Cerep
Procedure, shortened: as §1

EPHA5 = molecular target: T10, EPHA5 (Homo sapiens, UniProt P54756)
T10 construct: purchased Ambit (DiscoverX) KINOMEscan; Cerep
Procedure, shortened: as §1

ERBB3 = molecular target: T11, ERBB3 (Homo sapiens, UniProt P21860)
T11 construct: purchased Ambit (DiscoverX) KINOMEscan; Cerep
Procedure, shortened: as §1

ERBB4 = molecular target: T12, ERBB4 (Homo sapiens, UniProt Q15303)
T12 construct: purchased Ambit (DiscoverX) KINOMEscan; Cerep
Procedure, shortened: as §1

ERN1 = molecular target: T13, ERN1 (Homo sapiens, UniProt O75460)
T13 construct: purchased Ambit (DiscoverX) KINOMEscan; Cerep
Procedure, shortened: as §1

FGR = molecular target: T14, FGR (Homo sapiens, UniProt P09769)
T14 construct: purchased Ambit (DiscoverX) KINOMEscan; Cerep
Procedure, shortened: as §1

HUNK = molecular target: T15, HUNK (Homo sapiens, UniProt P57058)
T15 construct: purchased Ambit (DiscoverX) KINOMEscan; Cerep
Procedure, shortened: as §1

INSR = molecular target: T16, INSR (Homo sapiens, UniProt P06213)
T16 construct: purchased Ambit (DiscoverX) KINOMEscan; Cerep
T16 sequence (P06213 28-1382): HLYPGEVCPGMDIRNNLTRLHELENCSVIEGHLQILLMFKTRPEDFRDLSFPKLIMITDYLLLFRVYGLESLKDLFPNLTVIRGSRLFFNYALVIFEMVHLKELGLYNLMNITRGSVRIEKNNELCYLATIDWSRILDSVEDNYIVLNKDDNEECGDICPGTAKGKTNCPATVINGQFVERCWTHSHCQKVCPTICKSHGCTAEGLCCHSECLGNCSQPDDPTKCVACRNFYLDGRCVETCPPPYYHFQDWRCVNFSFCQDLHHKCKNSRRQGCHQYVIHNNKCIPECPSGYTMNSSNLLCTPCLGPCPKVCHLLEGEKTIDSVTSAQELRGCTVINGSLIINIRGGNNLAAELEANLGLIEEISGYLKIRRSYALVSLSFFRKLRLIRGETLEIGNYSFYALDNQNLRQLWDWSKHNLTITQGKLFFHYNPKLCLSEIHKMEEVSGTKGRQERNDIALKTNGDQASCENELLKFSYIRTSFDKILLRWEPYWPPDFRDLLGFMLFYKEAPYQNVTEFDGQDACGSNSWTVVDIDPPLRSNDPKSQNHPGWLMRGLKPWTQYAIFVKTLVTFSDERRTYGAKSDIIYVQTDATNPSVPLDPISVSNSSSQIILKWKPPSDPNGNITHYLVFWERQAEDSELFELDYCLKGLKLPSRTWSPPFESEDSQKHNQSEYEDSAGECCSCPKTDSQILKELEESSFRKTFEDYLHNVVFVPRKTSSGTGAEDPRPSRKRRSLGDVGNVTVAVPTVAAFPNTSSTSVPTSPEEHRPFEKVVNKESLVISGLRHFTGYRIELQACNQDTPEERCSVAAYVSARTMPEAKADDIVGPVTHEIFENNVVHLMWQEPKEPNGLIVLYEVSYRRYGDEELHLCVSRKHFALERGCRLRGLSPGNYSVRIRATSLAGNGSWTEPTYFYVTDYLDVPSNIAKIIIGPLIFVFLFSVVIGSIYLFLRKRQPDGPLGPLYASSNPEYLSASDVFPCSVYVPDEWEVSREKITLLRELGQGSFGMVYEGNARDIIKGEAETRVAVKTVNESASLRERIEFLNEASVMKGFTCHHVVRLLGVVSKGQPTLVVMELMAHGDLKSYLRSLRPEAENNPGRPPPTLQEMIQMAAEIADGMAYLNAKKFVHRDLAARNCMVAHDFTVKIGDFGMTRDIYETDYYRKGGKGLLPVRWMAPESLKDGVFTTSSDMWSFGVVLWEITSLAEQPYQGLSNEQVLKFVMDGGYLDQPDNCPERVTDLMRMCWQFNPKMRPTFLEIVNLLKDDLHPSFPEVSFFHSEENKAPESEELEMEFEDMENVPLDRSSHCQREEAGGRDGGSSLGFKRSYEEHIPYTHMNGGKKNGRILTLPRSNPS
Procedure, shortened: as §1

LATS2 = molecular target: T17, LATS2 (Homo sapiens, UniProt Q9NRM7)
T17 construct: purchased Ambit (DiscoverX) KINOMEscan; Cerep
Procedure, shortened: as §1

MAP3K2 = molecular target: T18, MAP3K2 (Homo sapiens, UniProt Q9Y2U5)
T18 construct: purchased Ambit (DiscoverX) KINOMEscan; Cerep
T18 sequence (Q9Y2U5 whole entry): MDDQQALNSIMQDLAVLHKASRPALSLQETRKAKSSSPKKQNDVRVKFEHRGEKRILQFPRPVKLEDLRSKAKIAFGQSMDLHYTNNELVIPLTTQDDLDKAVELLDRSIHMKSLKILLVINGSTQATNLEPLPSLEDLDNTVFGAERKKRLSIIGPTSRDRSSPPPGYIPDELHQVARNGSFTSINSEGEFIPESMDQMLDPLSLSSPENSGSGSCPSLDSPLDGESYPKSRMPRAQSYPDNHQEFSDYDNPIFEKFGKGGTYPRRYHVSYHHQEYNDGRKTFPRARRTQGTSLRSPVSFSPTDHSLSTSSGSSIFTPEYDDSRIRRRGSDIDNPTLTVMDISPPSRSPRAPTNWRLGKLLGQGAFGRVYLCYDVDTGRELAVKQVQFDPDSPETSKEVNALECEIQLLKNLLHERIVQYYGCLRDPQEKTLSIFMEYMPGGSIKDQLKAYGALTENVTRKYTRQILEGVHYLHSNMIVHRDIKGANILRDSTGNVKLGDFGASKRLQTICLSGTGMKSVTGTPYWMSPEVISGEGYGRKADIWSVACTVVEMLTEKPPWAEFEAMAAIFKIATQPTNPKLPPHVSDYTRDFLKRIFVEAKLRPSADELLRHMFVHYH
Procedure, shortened: as §1

MYLK = molecular target: T19, MYLK (Homo sapiens, UniProt Q15746)
T19 construct: purchased Ambit (DiscoverX) KINOMEscan; Cerep
Procedure, shortened: as §1

NEK5 = molecular target: T20, NEK5 (Homo sapiens, UniProt Q6P3R8)
T20 construct: purchased Ambit (DiscoverX) KINOMEscan; Cerep
Procedure, shortened: as §1

NEK9 = molecular target: T21, NEK9 (Homo sapiens, UniProt Q8TD19)
T21 construct: purchased Ambit (DiscoverX) KINOMEscan; Cerep
Procedure, shortened: as §1

OSR1 = molecular target: T22, OSR1 (Homo sapiens, UniProt O95747)
T22 construct: purchased Ambit (DiscoverX) KINOMEscan; Cerep
Procedure, shortened: as §1

PIK3CA(H1047L) = molecular target: T23, PIK3CA(H1047L) (Homo sapiens, UniProt P42336, H1047L)
T23 construct: purchased Ambit (DiscoverX) KINOMEscan; Cerep
T23 sequence (P42336 whole entry H1047L): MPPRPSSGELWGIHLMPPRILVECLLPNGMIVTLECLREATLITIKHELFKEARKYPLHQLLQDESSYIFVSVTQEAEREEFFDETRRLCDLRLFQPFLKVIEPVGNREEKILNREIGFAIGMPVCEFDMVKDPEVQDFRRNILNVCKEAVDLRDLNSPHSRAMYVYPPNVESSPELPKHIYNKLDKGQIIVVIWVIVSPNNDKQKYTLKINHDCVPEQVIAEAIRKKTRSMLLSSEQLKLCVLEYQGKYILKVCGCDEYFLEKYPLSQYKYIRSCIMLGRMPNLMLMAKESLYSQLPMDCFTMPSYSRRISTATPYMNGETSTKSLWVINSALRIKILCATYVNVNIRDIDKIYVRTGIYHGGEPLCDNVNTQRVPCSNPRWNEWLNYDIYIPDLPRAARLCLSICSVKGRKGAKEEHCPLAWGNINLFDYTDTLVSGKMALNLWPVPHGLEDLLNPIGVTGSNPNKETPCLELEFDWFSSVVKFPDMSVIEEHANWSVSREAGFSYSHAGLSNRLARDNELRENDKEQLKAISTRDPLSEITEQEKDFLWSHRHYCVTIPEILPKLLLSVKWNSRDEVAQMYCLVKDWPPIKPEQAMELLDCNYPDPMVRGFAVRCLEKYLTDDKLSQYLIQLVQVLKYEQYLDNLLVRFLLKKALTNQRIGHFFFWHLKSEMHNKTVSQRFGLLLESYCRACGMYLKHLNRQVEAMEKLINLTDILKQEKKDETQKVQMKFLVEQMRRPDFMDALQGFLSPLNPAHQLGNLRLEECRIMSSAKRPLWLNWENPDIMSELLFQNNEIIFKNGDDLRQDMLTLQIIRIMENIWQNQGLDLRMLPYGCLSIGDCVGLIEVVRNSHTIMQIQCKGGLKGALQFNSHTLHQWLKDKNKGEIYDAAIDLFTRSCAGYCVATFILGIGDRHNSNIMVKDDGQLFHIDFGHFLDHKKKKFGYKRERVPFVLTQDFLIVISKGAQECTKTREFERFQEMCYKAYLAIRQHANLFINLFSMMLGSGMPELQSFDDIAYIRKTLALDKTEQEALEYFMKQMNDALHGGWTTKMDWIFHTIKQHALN
Procedure, shortened: as §1

PIK4Cb = molecular target: T24, PIK4Cb (Homo sapiens, UniProt Q9UBF8)
T24 construct: purchased Ambit (DiscoverX) KINOMEscan; Cerep
Procedure, shortened: as §1

PKN2 = molecular target: T25, PKN2 (Homo sapiens, UniProt Q16513)
T25 construct: purchased Ambit (DiscoverX) KINOMEscan; Cerep
Procedure, shortened: as §1

ROCK2 = molecular target: T26, ROCK2 (Homo sapiens, UniProt O75116)
T26 construct: purchased Ambit (DiscoverX) KINOMEscan; Cerep
Procedure, shortened: as §1

SLK = molecular target: T27, SLK (Homo sapiens, UniProt Q9H2G2)
T27 construct: purchased Ambit (DiscoverX) KINOMEscan; Cerep
T27 sequence (Q9H2G2 whole entry): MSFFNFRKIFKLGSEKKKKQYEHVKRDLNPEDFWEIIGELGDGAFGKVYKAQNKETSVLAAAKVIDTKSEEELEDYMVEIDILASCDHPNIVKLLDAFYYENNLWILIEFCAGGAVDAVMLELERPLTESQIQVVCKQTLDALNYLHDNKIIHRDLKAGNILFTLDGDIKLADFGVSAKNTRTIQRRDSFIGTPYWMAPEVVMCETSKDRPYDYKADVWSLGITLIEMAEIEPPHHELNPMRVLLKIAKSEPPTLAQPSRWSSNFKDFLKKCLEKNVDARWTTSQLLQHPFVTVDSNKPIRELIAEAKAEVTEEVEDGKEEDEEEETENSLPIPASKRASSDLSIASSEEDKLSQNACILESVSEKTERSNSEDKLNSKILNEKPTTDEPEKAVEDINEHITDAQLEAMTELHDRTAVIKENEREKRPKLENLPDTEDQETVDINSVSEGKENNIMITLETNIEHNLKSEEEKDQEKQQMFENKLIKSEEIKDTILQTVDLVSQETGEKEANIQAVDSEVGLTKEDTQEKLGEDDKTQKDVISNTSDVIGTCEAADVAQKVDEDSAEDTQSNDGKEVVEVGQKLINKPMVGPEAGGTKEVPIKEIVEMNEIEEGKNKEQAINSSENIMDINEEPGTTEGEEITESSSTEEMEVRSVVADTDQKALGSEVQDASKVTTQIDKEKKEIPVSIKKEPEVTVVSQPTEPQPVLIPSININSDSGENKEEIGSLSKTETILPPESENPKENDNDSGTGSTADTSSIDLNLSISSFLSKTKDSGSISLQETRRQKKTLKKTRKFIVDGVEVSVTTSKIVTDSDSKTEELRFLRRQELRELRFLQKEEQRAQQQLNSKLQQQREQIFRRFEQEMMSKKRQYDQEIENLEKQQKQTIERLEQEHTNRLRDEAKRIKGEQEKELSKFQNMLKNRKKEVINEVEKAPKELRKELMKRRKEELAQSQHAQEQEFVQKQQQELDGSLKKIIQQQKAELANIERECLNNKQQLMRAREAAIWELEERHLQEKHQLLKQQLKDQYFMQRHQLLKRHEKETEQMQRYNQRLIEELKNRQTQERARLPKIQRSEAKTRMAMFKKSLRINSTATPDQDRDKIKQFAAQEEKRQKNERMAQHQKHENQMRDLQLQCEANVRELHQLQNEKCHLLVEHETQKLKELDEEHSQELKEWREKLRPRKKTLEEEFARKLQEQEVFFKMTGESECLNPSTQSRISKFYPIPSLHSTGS
Procedure, shortened: as §1

SNARK = molecular target: T28, SNARK (Homo sapiens, UniProt Q9H093)
T28 construct: purchased Ambit (DiscoverX) KINOMEscan; Cerep
T28 sequence (Q9H093 whole entry): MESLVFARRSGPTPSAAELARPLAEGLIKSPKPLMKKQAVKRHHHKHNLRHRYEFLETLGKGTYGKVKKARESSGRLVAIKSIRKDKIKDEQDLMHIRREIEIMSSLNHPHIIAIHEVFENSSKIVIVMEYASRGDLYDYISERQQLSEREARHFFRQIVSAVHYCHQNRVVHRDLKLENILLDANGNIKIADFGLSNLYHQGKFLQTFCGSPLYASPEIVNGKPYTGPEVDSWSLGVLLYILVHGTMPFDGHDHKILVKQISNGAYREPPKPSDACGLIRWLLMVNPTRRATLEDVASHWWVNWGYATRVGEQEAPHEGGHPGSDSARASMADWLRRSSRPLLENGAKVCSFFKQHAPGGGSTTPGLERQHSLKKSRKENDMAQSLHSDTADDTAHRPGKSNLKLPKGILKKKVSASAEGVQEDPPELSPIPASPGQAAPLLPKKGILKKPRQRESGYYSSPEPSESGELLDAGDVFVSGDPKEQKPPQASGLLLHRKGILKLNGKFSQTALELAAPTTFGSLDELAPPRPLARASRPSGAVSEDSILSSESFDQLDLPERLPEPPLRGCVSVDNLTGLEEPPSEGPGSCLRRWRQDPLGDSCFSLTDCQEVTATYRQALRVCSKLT
Procedure, shortened: as §1

STK39 = molecular target: T29, STK39 (Homo sapiens, UniProt Q9UEW8)
T29 construct: purchased Ambit (DiscoverX) KINOMEscan; Cerep
Procedure, shortened: as §1

TAK1 = molecular target: T30, TAK1 (Homo sapiens, UniProt O43318)
T30 construct: purchased Ambit (DiscoverX) KINOMEscan; Cerep
Procedure, shortened: as §1

TGFBR2 = molecular target: T31, TGFBR2 (Homo sapiens, UniProt P37173)
T31 construct: purchased Ambit (DiscoverX) KINOMEscan; Cerep
Procedure, shortened: as §1

TRKb = molecular target: T32, TRKb (Homo sapiens, UniProt Q16620)
T32 construct: purchased Ambit (DiscoverX) KINOMEscan; Cerep
Procedure, shortened: as §1

TSSK1B = molecular target: T33, TSSK1B (Homo sapiens, UniProt Q9BXA7)
T33 construct: purchased Ambit (DiscoverX) KINOMEscan; Cerep
Procedure, shortened: as §1

ULK3 = molecular target: T34, ULK3 (Homo sapiens, UniProt Q6PHR2)
T34 construct: purchased Ambit (DiscoverX) KINOMEscan; Cerep
Procedure, shortened: as §1

ZAP70 = molecular target: T35, ZAP70 (Homo sapiens, UniProt P43403)
T35 construct: purchased Ambit (DiscoverX) KINOMEscan; Cerep
Procedure, shortened: as §1

CCCCN1CCN(C(=N)c2cccc(NC(=O)Nc3ccc(S(=O)(=O)NCc4ccc(S(N)(=O)=O)cc4)cc3)c2)CC1 [SC81458, 4-(3-(3-((4-butylpiperazin-1-yl)(imino)methyl)phenyl)ureido)-N-(4-sulfamoylbenzyl) benzenesulfonamide]
remaining binding at 10 µM (ARK5): 92%
remaining binding at 10 µM (ASK2): 100%
remaining binding at 10 µM (CAMK2b): 100%
remaining binding at 10 µM (CAMKK1): 93%
remaining binding at 10 µM (CLK2): 100%
remaining binding at 10 µM (DAPK2): 100%
remaining binding at 10 µM (DCAMKL2): 100%
remaining binding at 10 µM (DRAK1): 98%
remaining binding at 10 µM (DYRK2): 100%
remaining binding at 10 µM (EPHA5): 100%
remaining binding at 10 µM (ERBB3): 81%
remaining binding at 10 µM (ERBB4): 100%
remaining binding at 10 µM (ERN1): 100%
remaining binding at 10 µM (FGR): 100%
remaining binding at 10 µM (HUNK): 100%
remaining binding at 10 µM (INSR): 100%
remaining binding at 10 µM (LATS2): 100%
remaining binding at 10 µM (MAP3K2): 100%
remaining binding at 10 µM (MYLK): 95%
remaining binding at 10 µM (NEK5): 100%
remaining binding at 10 µM (NEK9): 100%
remaining binding at 10 µM (OSR1): 100%
remaining binding at 10 µM (PIK3CA(H1047L)): 100%
remaining binding at 10 µM (PIK4Cb): 100%
remaining binding at 10 µM (PKN2): 67%
remaining binding at 10 µM (ROCK2): 76%
remaining binding at 10 µM (SLK): 100%
remaining binding at 10 µM (SNARK): 100%
remaining binding at 10 µM (STK39): 57%
remaining binding at 10 µM (TAK1): 100%
remaining binding at 10 µM (TGFBR2): 80%
remaining binding at 10 µM (TRKb): 100%
remaining binding at 10 µM (TSSK1B): 97%
remaining binding at 10 µM (ULK3): 73%
remaining binding at 10 µM (ZAP70): 89%

Source: article PMC5290327, “SC83288 is a clinical development candidate for the treatment of severe malaria” (Nature Communications, 2017)
